Among the data in ChEMBL document CHEMBL3045977, “Antidiabetic and antioxidant activity of hydroxycinnamic acids from Calamintha Officinalis Moench” (2012) are Activity values, retold here.

Molecules are shown by their SMILES.

One assay has as its system Rattus norvegicus. In words: Antidiabetic activity in alloxan-induced diabetic Rattus norvegicus albino Wistar (rat) model assessed as reduction in blood glucose level at 10 mg/kg, po administered for 14 days measured on day 14 (reference value: 248.6 +/- 1.20 mg/dl). Format: functional.
`O=C(O)/C=C/c1ccc(O)c(O)c1` [CAFFEIC ACID]: the Activity was 105.4 mg/dL.

On to `COc1ccc(Cl)cc1C(=O)NCCc1ccc(S(=O)(=O)NC(=O)NC2CCCCC2)cc1` [GLYBURIDE], for which the Activity came to 115.1 mg/dL.

Turning to `O=C(/C=C/c1ccc(O)c(O)c1)O[C@H](Cc1ccc(O)c(O)c1)C(=O)O` [ROSMARINIC ACID], the Activity turned out to be 97.3 mg/dL.

In the next assay the test system is Rattus norvegicus. In words: Antidiabetic activity in alloxan-induced diabetic Rattus norvegicus albino Wistar (rat) model assessed as reduction in VLDL level at 10 mg/kg, po administered for 14 days measured on day 1 (reference value: 14.4 +/- 1.04 mg/dl). Format: functional.
For the molecule `O=C(O)/C=C/c1ccc(O)c(O)c1` [CAFFEIC ACID], the Activity worked out at 15 mg/dL.

For the molecule `COc1ccc(Cl)cc1C(=O)NCCc1ccc(S(=O)(=O)NC(=O)NC2CCCCC2)cc1` [GLYBURIDE], the Activity was found to be 14 mg/dL.

Regarding `O=C(/C=C/c1ccc(O)c(O)c1)O[C@H](Cc1ccc(O)c(O)c1)C(=O)O` [ROSMARINIC ACID], the Activity came out at 14.2 mg/dL.

For the next assay, the system named is Rattus norvegicus. In words: Antidiabetic activity in alloxan-induced diabetic Rattus norvegicus albino Wistar (rat) model assessed as reduction in LDL level at 10 mg/kg, po administered for 14 days measured on day 14 (reference value: 68.2 +/- 2.10 mg/dl). Format: functional.
On to `O=C(O)/C=C/c1ccc(O)c(O)c1` [CAFFEIC ACID], for which the Activity amounted to 41 mg/dL.

On to `COc1ccc(Cl)cc1C(=O)NCCc1ccc(S(=O)(=O)NC(=O)NC2CCCCC2)cc1` [GLYBURIDE], for which the Activity came out at 36.4 mg/dL.

As to `O=C(/C=C/c1ccc(O)c(O)c1)O[C@H](Cc1ccc(O)c(O)c1)C(=O)O` [ROSMARINIC ACID], the Activity came out at 42.3 mg/dL.

For the next assay, the system named is Rattus norvegicus. In words: Antidiabetic activity in alloxan-induced diabetic Rattus norvegicus albino Wistar (rat) model assessed as reduction in triglyceride level at 10 mg/kg, po administered for 14 days measured on day 14 (reference value: 210.8 +/- 1.25 mg/dl). The assay is classed as functional.
Take `O=C(O)/C=C/c1ccc(O)c(O)c1` [CAFFEIC ACID]: the Activity amounted to 103.2 mg/dL.

On to `COc1ccc(Cl)cc1C(=O)NCCc1ccc(S(=O)(=O)NC(=O)NC2CCCCC2)cc1` [GLYBURIDE], for which the Activity came to 102.5 mg/dL.

On to `O=C(/C=C/c1ccc(O)c(O)c1)O[C@H](Cc1ccc(O)c(O)c1)C(=O)O` [ROSMARINIC ACID], for which the Activity is 100.5 mg/dL.

The test system of the next assay is Rattus norvegicus. Description: Antidiabetic activity in alloxan-induced diabetic Rattus norvegicus albino Wistar (rat) model assessed as change in body weight at 10 mg/kg, po administered for 14 days measured on day 1 (reference value: 205.4 +/-2.68 g). The assay is classed as functional.
Consider `O=C(O)/C=C/c1ccc(O)c(O)c1` [CAFFEIC ACID], for which the Activity is 209.3 g.

`COc1ccc(Cl)cc1C(=O)NCCc1ccc(S(=O)(=O)NC(=O)NC2CCCCC2)cc1` [GLYBURIDE]: the Activity was 207.6 g.

As for `O=C(/C=C/c1ccc(O)c(O)c1)O[C@H](Cc1ccc(O)c(O)c1)C(=O)O` [ROSMARINIC ACID], the Activity turned out to be 206.8 g.

The next assay has as its system Rattus norvegicus. Description: Antidiabetic activity in alloxan-induced diabetic Rattus norvegicus albino Wistar (rat) model assessed as reduction in LDL level at 10 mg/kg, po administered for 14 days measured on day 1 (reference value: 52.4 +/- 2.32 mg/dl). Format: functional.
With `O=C(O)/C=C/c1ccc(O)c(O)c1` [CAFFEIC ACID], the Activity is 53.7 mg/dL.

As for `COc1ccc(Cl)cc1C(=O)NCCc1ccc(S(=O)(=O)NC(=O)NC2CCCCC2)cc1` [GLYBURIDE], the Activity was determined as 50 mg/dL.

`O=C(/C=C/c1ccc(O)c(O)c1)O[C@H](Cc1ccc(O)c(O)c1)C(=O)O` [ROSMARINIC ACID]: the Activity was found to be 51.3 mg/dL.

A further assay deals with Rattus norvegicus. In words: Antidiabetic activity in alloxan-induced diabetic Rattus norvegicus albino Wistar (rat) model assessed as reduction in triglyceride level at 10 mg/kg, po administered for 14 days measured on day 1 (reference value: 158.9 +/- 1.23 mg/dl). Format: functional.
As to `O=C(O)/C=C/c1ccc(O)c(O)c1` [CAFFEIC ACID], the Activity turned out to be 160.4 mg/dL.

Turning to `COc1ccc(Cl)cc1C(=O)NCCc1ccc(S(=O)(=O)NC(=O)NC2CCCCC2)cc1` [GLYBURIDE], the Activity is 161.6 mg/dL.

Turning to `O=C(/C=C/c1ccc(O)c(O)c1)O[C@H](Cc1ccc(O)c(O)c1)C(=O)O` [ROSMARINIC ACID], the Activity was determined as 157.6 mg/dL.

Another assay deals with Rattus norvegicus. Description: Antidiabetic activity in alloxan-induced diabetic Rattus norvegicus albino Wistar (rat) model assessed as reduction in blood glucose level at 10 mg/kg, po administered for 14 days measured on day 1 (reference value: 242.2 +/- 0.71 mg/dl). The assay is classed as functional.
Regarding `O=C(O)/C=C/c1ccc(O)c(O)c1` [CAFFEIC ACID], the Activity is 239 mg/dL.

For `COc1ccc(Cl)cc1C(=O)NCCc1ccc(S(=O)(=O)NC(=O)NC2CCCCC2)cc1` [GLYBURIDE], the Activity came out at 240 mg/dL.

`O=C(/C=C/c1ccc(O)c(O)c1)O[C@H](Cc1ccc(O)c(O)c1)C(=O)O` [ROSMARINIC ACID]: the Activity was found to be 244.1 mg/dL.

The test system of the next assay is Rattus norvegicus. Description: Antidiabetic activity in alloxan-induced diabetic Rattus norvegicus albino Wistar (rat) model assessed as reduction in VLDL level at 10 mg/kg, po administered for 14 days measured on day 14 (reference value: 29.9 +/- 0.83 mg/dl). Format: functional.
In the case of `O=C(O)/C=C/c1ccc(O)c(O)c1` [CAFFEIC ACID], the Activity came out at 20.9 mg/dL.

In the case of `COc1ccc(Cl)cc1C(=O)NCCc1ccc(S(=O)(=O)NC(=O)NC2CCCCC2)cc1` [GLYBURIDE], the Activity was 20.1 mg/dL.

As for `O=C(/C=C/c1ccc(O)c(O)c1)O[C@H](Cc1ccc(O)c(O)c1)C(=O)O` [ROSMARINIC ACID], the Activity was determined as 21.7 mg/dL.

For another assay, the system named is Rattus norvegicus. Description: Antidiabetic activity in alloxan-induced diabetic Rattus norvegicus albino Wistar (rat) model assessed as reduction in HDL level at 10 mg/kg, po administered for 14 days measured on day 14 (reference value: 36.4 +/- 1.05 mg/dl). The assay is classed as functional.
For the molecule `O=C(O)/C=C/c1ccc(O)c(O)c1` [CAFFEIC ACID], the Activity stood at 41.4 mg/dL.

Turning to `COc1ccc(Cl)cc1C(=O)NCCc1ccc(S(=O)(=O)NC(=O)NC2CCCCC2)cc1` [GLYBURIDE], the Activity amounted to 45.7 mg/dL.

For the molecule `O=C(/C=C/c1ccc(O)c(O)c1)O[C@H](Cc1ccc(O)c(O)c1)C(=O)O` [ROSMARINIC ACID], the Activity is 50.2 mg/dL.

A further assay relates to Rattus norvegicus. In words: Antidiabetic activity in alloxan-induced diabetic Rattus norvegicus albino Wistar (rat) model assessed as TBRAS level per gram of liver tissue at 10 mg/kg, po administered for 14 days measured after 14 days (reference value: 0.72 +/-0.12 uM/g). The assay is classed as functional.
As for `O=C(O)/C=C/c1ccc(O)c(O)c1` [CAFFEIC ACID], the Activity came to 0.56 µM.

Consider `COc1ccc(Cl)cc1C(=O)NCCc1ccc(S(=O)(=O)NC(=O)NC2CCCCC2)cc1` [GLYBURIDE], for which the Activity worked out at 0.45 µM.

For the molecule `O=C(/C=C/c1ccc(O)c(O)c1)O[C@H](Cc1ccc(O)c(O)c1)C(=O)O` [ROSMARINIC ACID], the Activity amounted to 0.5 µM.

The next assay has as its system Rattus norvegicus. In words: Antidiabetic activity in alloxan-induced diabetic Rattus norvegicus albino Wistar (rat) model assessed as change in body weight at 10 mg/kg, po administered for 14 days measured on day 14 (reference value: 190.6 +/-1.78 g). The assay is classed as functional.
For `O=C(O)/C=C/c1ccc(O)c(O)c1` [CAFFEIC ACID], the Activity was found to be 246 g.

Consider `COc1ccc(Cl)cc1C(=O)NCCc1ccc(S(=O)(=O)NC(=O)NC2CCCCC2)cc1` [GLYBURIDE], for which the Activity is recorded as 250.5 g.

Regarding `O=C(/C=C/c1ccc(O)c(O)c1)O[C@H](Cc1ccc(O)c(O)c1)C(=O)O` [ROSMARINIC ACID], the Activity was determined as 249.5 g.

Another assay relates to Rattus norvegicus. Description: Antidiabetic activity in alloxan-induced diabetic Rattus norvegicus albino Wistar (rat) model assessed as reduction in total cholesterol level at 10 mg/kg, po administered for 14 days measured on day 1 (reference value: 98.6 +/- 0.51 mg/dl). The assay is classed as functional.
For the molecule `O=C(O)/C=C/c1ccc(O)c(O)c1` [CAFFEIC ACID], the Activity is 101.2 mg/dL.

`COc1ccc(Cl)cc1C(=O)NCCc1ccc(S(=O)(=O)NC(=O)NC2CCCCC2)cc1` [GLYBURIDE]: the Activity came out at 98.1 mg/dL.

In the case of `O=C(/C=C/c1ccc(O)c(O)c1)O[C@H](Cc1ccc(O)c(O)c1)C(=O)O` [ROSMARINIC ACID], the Activity was determined as 100.1 mg/dL.

The next assay deals with Rattus norvegicus. In words: Antidiabetic activity in alloxan-induced diabetic Rattus norvegicus albino Wistar (rat) model assessed as reduction in total cholesterol level at 10 mg/kg, po administered for 14 days measured on day 14 (reference value: 131.2 +/- 0.48 mg/dl). Format: functional.
For `O=C(O)/C=C/c1ccc(O)c(O)c1` [CAFFEIC ACID], the Activity came out at 60.6 mg/dL.

`COc1ccc(Cl)cc1C(=O)NCCc1ccc(S(=O)(=O)NC(=O)NC2CCCCC2)cc1` [GLYBURIDE]: the Activity turned out to be 58.6 mg/dL.

`O=C(/C=C/c1ccc(O)c(O)c1)O[C@H](Cc1ccc(O)c(O)c1)C(=O)O` [ROSMARINIC ACID]: the Activity was 57.2 mg/dL.

For a further assay, the system named is Rattus norvegicus. Description: Antidiabetic activity in alloxan-induced diabetic Rattus norvegicus albino Wistar (rat) model assessed as reduction in HDL level at 10 mg/kg, po administered for 14 days measured on day 1 (reference value: 40.1 +/- 2.11 mg/dl). The assay is classed as functional.
On to `O=C(O)/C=C/c1ccc(O)c(O)c1` [CAFFEIC ACID], for which the Activity turned out to be 38.2 mg/dL.

On to `COc1ccc(Cl)cc1C(=O)NCCc1ccc(S(=O)(=O)NC(=O)NC2CCCCC2)cc1` [GLYBURIDE], for which the Activity was found to be 39.7 mg/dL.

Take `O=C(/C=C/c1ccc(O)c(O)c1)O[C@H](Cc1ccc(O)c(O)c1)C(=O)O` [ROSMARINIC ACID]: the Activity amounted to 41.2 mg/dL.
